# Patent publication US7989464B2, “mGluR1 antagonists as therapeutic agents” (Schering Corporation, priority 2004, dated 2011)
# Biological target: T1, hmGluR1 receptor (Homo sapiens, UniProt Q13255)
# T1 construct: expressed in transfected cells
# Test: IC50 determination: intracellular calcium mobilization (FLIPR) upon Quisqualate stimulation in CHO cells stably expressing hmGluR1
# Assay type: cell-based
# Conditions: against Quisqualate 1 μM (EC80), FLIPR calcium mobilization, read-out: IC50 Class
# Protocol: A CHO cell line stably expressing hmGluR1 receptor was established. One day prior to assay, cells were split in growth media at concentration of 50,000 cells/well in a volume of 100 μl and seeded into black clear-bottom 96-well plates. After two to six hours, when cells were well attached to the plate, growth medium was replaced with assay medium (100 μL) consisting of DMEM high glucose, supplemented with GPT (1 U/mL) and Sodium pyruvate, 1 mM. Following overnight incubation, medium was discarded and cells were loaded for 2 h with dye from the Calcium 3 Assay Reagent Kit (Molecular Devices, # R8033), prepared according to manufacturers' instructions. […] Test compounds were added 10 minutes before Quisqualate.
# T1 sequence (Q13255 19-1194): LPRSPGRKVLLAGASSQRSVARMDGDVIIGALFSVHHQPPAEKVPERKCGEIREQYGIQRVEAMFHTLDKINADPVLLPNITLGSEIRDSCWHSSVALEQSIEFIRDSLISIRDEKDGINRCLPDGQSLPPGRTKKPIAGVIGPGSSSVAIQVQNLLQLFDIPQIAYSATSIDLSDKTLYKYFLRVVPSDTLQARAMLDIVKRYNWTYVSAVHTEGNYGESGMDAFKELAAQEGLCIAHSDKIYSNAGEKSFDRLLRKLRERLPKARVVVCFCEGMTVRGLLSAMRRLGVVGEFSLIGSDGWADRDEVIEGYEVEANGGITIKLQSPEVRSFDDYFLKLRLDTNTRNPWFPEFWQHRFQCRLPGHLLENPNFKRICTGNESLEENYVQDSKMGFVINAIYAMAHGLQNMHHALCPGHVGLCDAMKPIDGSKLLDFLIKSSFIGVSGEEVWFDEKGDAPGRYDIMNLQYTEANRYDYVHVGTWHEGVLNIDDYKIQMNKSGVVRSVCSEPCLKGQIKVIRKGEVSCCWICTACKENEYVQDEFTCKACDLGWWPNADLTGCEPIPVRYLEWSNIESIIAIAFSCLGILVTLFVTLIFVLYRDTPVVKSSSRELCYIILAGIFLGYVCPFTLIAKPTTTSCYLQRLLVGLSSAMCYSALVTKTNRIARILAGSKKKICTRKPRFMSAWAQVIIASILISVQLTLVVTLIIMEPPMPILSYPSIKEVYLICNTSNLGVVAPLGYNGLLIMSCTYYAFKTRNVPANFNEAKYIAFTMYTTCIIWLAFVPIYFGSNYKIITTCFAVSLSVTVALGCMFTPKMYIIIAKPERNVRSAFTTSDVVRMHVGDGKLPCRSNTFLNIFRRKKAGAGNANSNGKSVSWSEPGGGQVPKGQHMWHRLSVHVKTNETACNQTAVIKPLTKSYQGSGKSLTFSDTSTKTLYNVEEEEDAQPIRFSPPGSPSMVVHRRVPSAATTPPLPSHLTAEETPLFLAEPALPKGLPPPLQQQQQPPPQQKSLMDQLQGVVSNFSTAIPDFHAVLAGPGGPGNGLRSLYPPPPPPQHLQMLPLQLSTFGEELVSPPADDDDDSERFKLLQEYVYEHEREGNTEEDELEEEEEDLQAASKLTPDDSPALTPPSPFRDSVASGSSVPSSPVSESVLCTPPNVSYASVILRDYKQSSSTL
row,Structure (SMILES),IC50
1,O=c1c2sc3nccc(NCCO)c3c2ncn1-c1ccc2occc2c1 [28BD],< 50 nM
2,CN(CCO)c1ccnc2sc3c(=O)n(-c4ccc5occc5c4)cnc3c12 [28BE],< 50 nM
3,O=c1c2sc3nccc(NCCCO)c3c2ncn1-c1ccc2occc2c1 [28BF],< 50 nM
4,CCNc1ccnc2sc3c(=O)n(-c4ccc5occc5c4)cnc3c12 [28BG],< 50 nM
5,CNc1ccnc2sc3c(=O)n(-c4ccc5occc5c4)cnc3c12 [28BH],< 50 nM
6,O=c1c2sc3nccc(NC4CC4)c3c2ncn1-c1ccc2occc2c1 [28BI],< 50 nM
7,CCNc1ccnc2sc3c(=O)n(-c4ccc(OC)cc4F)cnc3c12 [28BJ],50 to 150 nM
8,CNc1ccnc2sc3c(=O)n(-c4ccc(OC)cc4F)cnc3c12 [28BK],< 50 nM
9,COc1ccc(-n2cnc3c(sc4nccc(OC)c43)c2=O)c(C)c1 [28BL],> 1000 nM
10,COc1ccc(-n2cnc3c(sc4nccc(NCC(F)(F)F)c43)c2=O)c(F)c1 [28BM],50 to 150 nM
11,CNc1ccnc2sc3c(=O)n(-c4ccc(OC)cc4C)cnc3c12 [28BN],< 50 nM
12,CCNc1ccnc2sc3c(=O)n(-c4ccc(OC)cc4C)cnc3c12 [28BO],< 50 nM
13,COc1ccc(-n2cnc3c(sc4nccc(NCC(F)(F)F)c43)c2=O)c(C)c1 [28BP],150 to 1000 nM
14,CCNc1ccnc2sc3c(=O)n(-c4ccc5c(c4)CCO5)cnc3c12 [28BQ],< 50 nM
15,CNc1ccnc2sc3c(=O)n(-c4ccc5c(c4)CCO5)cnc3c12 [28BR],< 50 nM
16,CCc1ccc(-n2cnc3c(sc4nccc(N(C)CC)c43)c2=O)cc1 [28BS],< 50 nM
17,CCc1ccc(-n2cnc3c(sc4nccc(NC5CC5)c43)c2=O)cc1 [28BT],50 to 150 nM
18,CCN(C)c1ccnc2sc3c(=O)n(-c4ccc5occc5c4)cnc3c12 [28BU],< 50 nM
19,CCN(C)c1ccnc2sc3c(=O)n(-c4ccc(OC)cc4C)cnc3c12 [28BV],< 50 nM
20,CCN(C)c1ccnc2sc3c(=O)n(-c4ccc(OC)cc4F)cnc3c12 [28BW],< 50 nM
21,O=c1c2sc3nccc(NCC4CC4)c3c2ncn1-c1ccc2occc2c1 [28BX],150 to 1000 nM

row,Structure (SMILES),IC50
1,CCNc1ccnc2sc3c(=O)n(-c4ccc5c(c4)OCCO5)cnc3c12 [28BY],< 50 nM
2,CNc1ccnc2sc3c(=O)n(-c4ccc5c(c4)OCCO5)cnc3c12 [28BZ],< 50 nM
3,CCN(C)c1ccnc2sc3c(=O)n(-c4cccc(Cl)c4)cnc3c12 [28CA],< 50 nM
4,O=c1c2sc3nccc(NC4CC4)c3c2ncn1-c1cccc(Cl)c1 [28CB],50 to 150 nM
5,CNc1ccnc2sc3c(=O)n(-c4cccc(Cl)c4)cnc3c12 [28CC],50 to 150 nM
6,CCNc1ccnc2sc3c(=O)n(-c4cccc(Cl)c4)cnc3c12 [28CD],< 50 nM
7,O=c1c2sc3nccc(NC4CC4)c3c2ncn1-c1ccc2c(c1)CCO2 [28CE],< 50 nM
8,CN(CCO)c1ccnc2sc3c(=O)n(-c4ccc5c(c4)OCCO5)cnc3c12 [28CF],< 50 nM
9,CCN(C)c1ccnc2sc3c(=O)n(-c4ccc5c(c4)OCCO5)cnc3c12 [28CG],< 50 nM
10,CCN(C)c1ccnc2sc3c(=O)n(-c4ccc5c(c4)CCO5)cnc3c12 [28CH],< 50 nM
11,O=c1c2sc3nccc(NCCCO)c3c2ncn1-c1ccc2c(c1)OCCO2 [28CI],< 50 nM
12,O=c1c2sc3nccc(NCCCO)c3c2ncn1-c1ccc2c(c1)CCO2 [28CJ],< 50 nM
13,O=c1c2sc3nccc(NC4CC4)c3c2ncn1-c1ccc2c(c1)OCCO2 [28CK],< 50 nM
14,CN(CCO)c1ccnc2sc3c(=O)n(-c4ccc5c(c4)CCO5)cnc3c12 [28CL],< 50 nM
15,CCN(C)c1ccnc2sc3c(=O)n(-c4cccc(F)c4)cnc3c12 [28CM],< 50 nM
16,O=c1c2sc3nccc(NC4CC4)c3c2ncn1-c1cccc(F)c1 [28CN],< 50 nM
17,CNc1ccnc2sc3c(=O)n(-c4cccc(F)c4)cnc3c12 [28CO],< 50 nM
18,CN(C)c1ccnc2sc3c(=O)n(-c4cccc(F)c4)cnc3c12 [28CP],< 50 nM
19,CCNc1ccnc2sc3c(=O)n(-c4cccc(F)c4)cnc3c12 [28CQ],< 50 nM
20,CCNc1ccnc2sc3c(=O)n(-c4cccc(Br)c4)cnc3c12 [28CR],50 to 150 nM
21,CNc1ccnc2sc3c(=O)n(-c4cccc(Br)c4)cnc3c12 [28CS],50 to 150 nM

row,Structure (SMILES),IC50
1,Cc1ccc(-n2cnc3c(sc4nccc(NCCCCO)c43)c2=O)cc1 [28CT],< 50 nM
2,Cc1ccc(-n2cnc3c(sc4nccc(N5CC[C@H](O)C5)c43)c2=O)cc1 [28CU],> 1000 nM
3,Cc1ccc(-n2cnc3c(sc4nccc(N5CC[C@@H](O)C5)c43)c2=O)cc1 [28CV],> 1000 nM
4,Cc1ccc(-n2cnc3c(sc4nccc(N5CCOCC5)c43)c2=O)cc1 [28CW],> 1000 nM
5,Cc1ccc(-n2cnc3c(sc4nccc(NCCCO)c43)c2=O)cc1 [28CX],< 50 nM
6,Cc1ccc(-n2cnc3c(sc4nccc(NCCC(C)O)c43)c2=O)cc1 (stereo not drawn) [28CY],< 50 nM
7,COCCCNc1ccnc2sc3c(=O)n(-c4ccc(C)cc4)cnc3c12 [28CZ],< 50 nM
8,Cc1ccc(-n2cnc3c(sc4nccc(NC5CCC5)c43)c2=O)cc1 [28DA],150 to 1000 nM
9,COc1ccc(-n2cnc3c(sc4nccc(NCCO)c43)c2=O)cc1 [28DB],< 50 nM
10,COCCNc1ccnc2sc3c(=O)n(-c4ccc(OC)cc4)cnc3c12 [28DC],< 50 nM
11,Cc1ccc(-n2cnc3c(sc4nccc(N[C@@H](C)CO)c43)c2=O)cc1 [28DD],150 to 1000 nM
12,Cc1ccc(-n2cnc3c(sc4nccc(NC5CCC(O)CC5)c43)c2=O)cc1 (stereo not drawn) [28DE],150 to 1000 nM
13,Cc1ccc(-n2cnc3c(sc4nccc(NC5CCCCC5)c43)c2=O)cc1 [28DF],> 1000 nM
14,Cc1ccc(-n2cnc3c(sc4nccc(NC5CCOCC5)c43)c2=O)cc1 [28DG],150 to 1000 nM
15,Cc1ccc(-n2cnc3c(sc4nccc(N5CC(O)C5)c43)c2=O)cc1 [28DH],150 to 1000 nM
16,O=c1c2sc3nccc(N4CC(O)C4)c3c2ncn1-c1ccc(Cl)cc1 [28DI],150 to 1000 nM
17,COc1ccc(-n2cnc3c(sc4nccc(N5CC(O)C5)c43)c2=O)cc1 [28DJ],50 to 150 nM
18,Cc1ccc(-n2cnc3c(sc4nccc(NN)c43)c2=O)cc1 [28DK],150 to 1000 nM
19,C#CCNc1ccnc2sc3c(=O)n(-c4ccc(Cl)cc4)cnc3c12 [28DL],< 50 nM

# Same assay, conditions: against Quisqualate 1 μM (EC80), FLIPR calcium mobilization, read-out: mGluR1 IC50
row,Structure (SMILES),IC50
1,Cc1ccc(-n2cnc3c(sc4nccc(NCC#N)c43)c2=O)cc1 [28AA],1.81 nM
2,CNc1ccnc2sc3c(=O)n(-c4ccc(C)cc4)cnc3c12 [28AI],1.27 nM
3,CCNc1ccnc2sc3c(=O)n(-c4ccc5c(c4)CCO5)cnc3c12 [28BQ],1.57 nM
4,C#CCNc1ccnc2sc3c(=O)n(-c4ccc(Cl)cc4)cnc3c12 [28DL],0.91 nM

# Same assay, conditions: against Quisqualate 1 μM (EC80), class symbols, read-out: mGIuR 1 IC50
row,Structure (SMILES),IC50
1,O=c1c2sc3nccc(O)c3c2ncn1C1CCCCC1 [26A],> 1000 nM
2,Cc1ccc(-n2cnc3c(sc4nccc(O)c43)c2=O)cc1 [26C],> 1000 nM
3,O=c1c2sc3nccc(OS(=O)(=O)C(F)(F)F)c3c2ncn1C1CCCCC1 [27A],> 1000 nM
4,Cc1ccc(-n2cnc3c(sc4nccc(NCC#N)c43)c2=O)cc1 [28AA],< 50 nM
5,C#CCN(C)c1ccnc2sc3c(=O)n(-c4ccc(C)cc4)cnc3c12 [28AB],< 50 nM
6,C=CCN(C)c1ccnc2sc3c(=O)n(-c4ccc(C)cc4)cnc3c12 [28AC],< 50 nM
7,CC#CCNc1ccnc2sc3c(=O)n(-c4ccc(C)cc4)cnc3c12 [28AD],50 to 150 nM
8,Cc1ccc(-n2cnc3c(sc4nccc(N(C)N)c43)c2=O)cc1 [28AE],< 50 nM
9,O=c1c2sc3nccc(N4CCC(O)CC4)c3c2ncn1C1CCCCC1 [28AF],> 1000 nM
10,O=c1c2sc3nccc(NCCO)c3c2ncn1C1CCCCC1 [28AG],50 to 150 nM
11,CC(C)Nc1ccnc2sc3c(=O)n(C4CCCCC4)cnc3c12 [28AH],150 to 1000 nM
12,CNc1ccnc2sc3c(=O)n(-c4ccc(C)cc4)cnc3c12 [28AI],< 50 nM
13,O=c1c2sc3nccc(NCC4CC4)c3c2ncn1C1CCCCC1 [28AJ],150 to 1000 nM
14,CCN(C)c1ccnc2sc3c(=O)n(-c4ccc(C)cc4)cnc3c12 [28AK],< 50 nM
15,COc1ccc(-n2cnc3c(sc4nccc(NC5CC5)c43)c2=O)cc1 [28AL],< 50 nM
16,COc1ccc(-n2cnc3c(sc4nccc(N5CCC5)c43)c2=O)cc1 [28AM],50 to 150 nM
17,CCCN(C)c1ccnc2sc3c(=O)n(C4CCCCC4)cnc3c12 [28AN],< 50 nM

row,Structure (SMILES),IC50
1,CCCN(C)c1ccnc2sc3c(=O)n(-c4ccc(OC)cc4)cnc3c12 [28AO],< 50 nM
2,Cc1ccc(-n2cnc3c(sc4nccc(NC5CC5)c43)c2=O)cc1 [28AP],< 50 nM
3,CCN(CC)c1ccnc2sc3c(=O)n(-c4ccc(OC)cc4)cnc3c12 [28AQ],50 to 150 nM
4,CCCNc1ccnc2sc3c(=O)n(-c4ccc(OC)cc4)cnc3c12 [28AR],< 50 nM
5,CCCNc1ccnc2sc3c(=O)n(-c4ccc(C)cc4)cnc3c12 [28AS],< 50 nM
6,CCCN(C)c1ccnc2sc3c(=O)n(-c4ccc(C)cc4)cnc3c12 [28AT],< 50 nM
7,Cc1ccc(-n2cnc3c(sc4nccc(NCC(F)(F)F)c43)c2=O)cc1 [28AU],< 50 nM
8,Cc1ccc(-n2cnc3c(sc4nccc(NCCO)c43)c2=O)cc1 [28AV],< 50 nM
9,COc1ccc(-n2cnc3c(sc4nccc(NCC(F)(F)F)c43)c2=O)cc1 [28AW],< 50 nM
10,COc1ccc(-n2cnc3c(sc4nccc(NCC5CC5)c43)c2=O)cc1 [28AX],150 to 1000 nM
11,Cc1ccc(-n2cnc3c(sc4nccc(NCC5CC5)c43)c2=O)cc1 [28AY],150 to 1000 nM
12,COCCNc1ccnc2sc3c(=O)n(-c4ccc(C)cc4)cnc3c12 [28AZ],< 50 nM
13,O=c1c2sc3nccc(N4CCCC4)c3c2ncn1C1CCCCC1 [28A],> 1000 nM
14,Cc1ccc(-n2cnc3c(sc4nccc(NCCN(C)C)c43)c2=O)cc1 [28BA],150 to 1000 nM
15,Cc1ccc(-n2cnc3c(sc4nccc(NC[C@H](C)O)c43)c2=O)cc1 [28BB],< 50 nM
16,O=c1c2sc3nccc(NC4CCCCC4)c3c2ncn1-c1ccc(Cl)cc1 [28B],> 1000 nM
17,O=c1c2sc3nccc(NC4CCCCC4)c3c2ncn1C1CCCCC1 [28C],> 1000 nM
